Each block holds one compound with its values, some of them ahead of it.
Experiments:
Assay type in all cases: physicochemical
[1] = Appearance of formulation (state at 25° C.)
Description: Formulations 1 to 427 shown in Tables 1A to 1D were prepared by the above-described method using the components (A) and (B) at the compounding molar ratios shown in the tables, and their states at 25° C. were observed.

[2] = Water retention evaluation (moisture reduction rate); settings: for Moisture eduction rate / Moisture content before test (A): 80 wt. % aqueous solution; for Moisture eduction rate: 24 hours at 35° C. and 25% RH, calculated from A and B; for Moisture content before test (A): Karl Fischer; for Presence or absence of hydrates: left until the moisture content remained unchanged, based on final moisture content; for n-hydrate: number of hydrated water based on final moisture content
Description: 80 wt. % aqueous solutions of the formulations (organic salts) of the working examples 428 to 459 and comparative examples 1 to 5 in Tables 2A and 2B were prepared, and the water contents were measured using a Karl Fischer moisture meter (CA-200 manufactured by Mitsubishi Chemical Analytech Co., Ltd.). It was confirmed that the water contents of them were 20.0 wt. % (moisture content before test: A). Each of the 1.0 g samples was added to a screw tube, and left uncovered to stand still for 24 hours in a constant temperature and humidity bath (KCL-2000W manufactured by Tokyo Rikakikai Co., Ltd.) which was set at 35° C. and 25% RH. Moisture contents after being left for 24 hours were measured again (moisture content after test: B) to evaluate their water retention property by using the following formula for calculating the moisture reduction rates. After that, it was left to stand still until the moisture content remained unchanged, and determinations of the hydrate and the number of hydrated water were made based on the final moisture contents. • Moisture content before test: A (%) • Moisture content after test: B (%)

[3] = Appearance of formulation (state at 25° C.); settings: Tables 2A/2B; formulation at the compounding molar ratio listed
[4] = 25° C., components (A) and (B) at the compounding molar ratio shown
[5] = Tables 1C-1 to 1D, compounding molar ratio (Component (A):Component (B)) 1:1

SMILES: NCCCC[C@H](N)C(=O)O.NCCCC[C@H](N)C(=O)O.NCCCC[C@H](N)C(=O)O.O=C(O)CC(O)(CC(=O)O)C(=O)O.O=C(O)CC(O)(CC(=O)O)C(=O)O [Formulation 37]
state at 25° C. [1, 4]: Liquid
state at 25° C. ([1]; 25° C., components (A) and (B) at the compounding molar ratio shown, listed as Working example 37): liquid
Moisture eduction rate [2]: 22.4%
Moisture content before test (A) [2]: 20.0%
Presence or absence of hydrates [2]: Present
n-hydrate [2]: Dihydrate
state at 25° C. [3]: Liquid

SMILES: N=C(N)NCCC[C@H](N)C(=O)O.O=C(O)[C@H](O)[C@@H](O)[C@H](O)[C@H](O)CO [Formulation 51]
state at 25° C. [1, 4]: Liquid
Moisture eduction rate [2]: 23.7%
Moisture content before test (A) [2]: 20.0%
Presence or absence of hydrates [2]: Present
n-hydrate [2]: Mono-
state at 25° C. [3]: Liquid

SMILES: CCCCCC(=O)O.NCCCC[C@H](N)C(=O)O [Formulation 4]
state at 25° C. [1, 4]: Solid
Moisture eduction rate [2]: 60.2%
Moisture content before test (A) [2]: 20.0%
Presence or absence of hydrates [2]: Absent
state at 25° C. [3]: Solid

SMILES: N[C@@H](CO)C(=O)O.O=C(O)[C@H](O)[C@@H](O)[C@H](O)[C@H](O)CO [Formulation 243]
state at 25° C. [1, 4]: Liquid
state at 25° C. ([1]; 25° C., components (A) and (B) at the compounding molar ratio shown, listed as Working example 243): liquid
Moisture eduction rate [2]: 41.6%
Moisture content before test (A) [2]: 20.0%
Presence or absence of hydrates [2]: Present
n-hydrate [2]: Mono-
state at 25° C. [3]: Liquid

SMILES: NCCCC(=O)O.O=C(O)[C@H](O)[C@@H](O)[C@H](O)[C@H](O)CO [Formulation 175]
state at 25° C. [1, 4]: Liquid
state at 25° C. ([1]; 25° C., components (A) and (B) at the compounding molar ratio shown, listed as Working example 175): liquid
Moisture eduction rate [2]: 36.7%
Moisture content before test (A) [2]: 20.0%
Presence or absence of hydrates [2]: Present
n-hydrate [2]: Mono-
state at 25° C. [3]: Liquid

SMILES: NCC(=O)O.O=C(O)CC(O)(CC(=O)O)C(=O)O [Formulation 142]
state at 25° C. [1, 4]: Liquid
state at 25° C. ([1]; 25° C., components (A) and (B) at the compounding molar ratio shown, listed as Working example 142): liquid
Moisture eduction rate [2]: 32.2%
Moisture content before test (A) [2]: 20.0%
Presence or absence of hydrates [2]: Present
n-hydrate [2]: Hemi-
state at 25° C. [3]: Liquid

SMILES: NCCCC[C@H](N)C(=O)O.O=C(O)[C@H](O)[C@@H](O)[C@H](O)[C@H](O)CO [Formulation 9]
state at 25° C. [1, 4]: Liquid
state at 25° C. ([1]; 25° C., components (A) and (B) at the compounding molar ratio shown, listed as Working example 9): liquid
Moisture eduction rate [2]: 22.9%
Moisture content before test (A) [2]: 20.0%
Presence or absence of hydrates [2]: Present
n-hydrate [2]: Dihydrate
state at 25° C. [3]: Liquid

SMILES: NCCCC[C@H](N)C(=O)O.O=C(O)[C@H](O)[C@@H](O)[C@H](O)[C@H](O)CO.O=C(O)[C@H](O)[C@@H](O)[C@H](O)[C@H](O)CO [Formulation 30]
state at 25° C. [1, 4]: Liquid
state at 25° C. ([1]; 25° C., components (A) and (B) at the compounding molar ratio shown, listed as Working example 30): liquid
Moisture eduction rate [2]: 42.7%
Moisture content before test (A) [2]: 20.0%
Presence or absence of hydrates [2]: Present
state at 25° C. [3]: Liquid

SMILES: N[C@@H](Cc1c[nH]cn1)C(=O)O.O=C(O)[C@H](O)[C@@H](O)[C@H](O)[C@H](O)CO [Formulation 93]
state at 25° C. [1, 4]: Liquid
state at 25° C. ([1]; 25° C., components (A) and (B) at the compounding molar ratio shown, listed as Working example 93): liquid
Moisture eduction rate [2]: 20.4%
Moisture content before test (A) [2]: 20.0%
Presence or absence of hydrates [2]: Present
state at 25° C. [3]: Liquid

state at 25° C. [1, 5]: Solid
SMILES: CCCCCC(=O)O.N[C@@H](CS)C(=O)O [Formulation 309]

SMILES: N[C@@H](CCC(=O)O)C(=O)O.O=C(O)[C@@H]1CCCN1 [Formulation 352]
state at 25° C. [1, 5]: Solid

SMILES: N[C@@H](CC(=O)O)C(=O)O.N[C@@H](CCC(=O)O)C(=O)O [Formulation 403]
state at 25° C. [1, 5]: Solid

SMILES: CC(O)C(=O)O.N[C@@H](CO)C(=O)O [Formulation 244]
state at 25° C. [1, 4]: Solid

SMILES: N=C(N)NCCC[C@H](N)C(=O)O.O=C(O)CC(O)(CC(=O)O)C(=O)O [Formulation 58]
state at 25° C. [1, 4]: Liquid
Moisture eduction rate [2]: 21.8%
Moisture content before test (A) [2]: 20.0%
Presence or absence of hydrates [2]: Present
state at 25° C. [3]: Liquid

SMILES: CCCCC/C=C\C/C=C\CCCCCCCC(=O)O.NCCCC(=O)O [Formulation 174]
state at 25° C. [1, 4]: Solid

state at 25° C. [1, 4]: Solid
SMILES: CC(O)C(=O)O.NCCCCC(N)C(=O)O (centres unmarked) [Formulation 10]

state at 25° C. [1, 5]: Solid
SMILES: N[C@@H](CC(=O)O)C(=O)O.O=C(O)/C=C/C(=O)O [Formulation 404]

SMILES: CC(C)C[C@H](N)C(=O)O.CC(O)C(=O)O [Formulation 210]
state at 25° C. [1, 4]: Solid

SMILES: Cl.NCCCC[C@H](N)C(=O)O [Formulation 429]
Moisture eduction rate [2]: 68.2%
Moisture content before test (A) [2]: 20.0%
Presence or absence of hydrates [2]: Absent
state at 25° C. [3]: Solid

state at 25° C. [1, 5]: Solid
SMILES: CCC(=O)O.CSCC[C@H](N)C(=O)O [Formulation 325]

SMILES: N[C@@H](Cc1c[nH]c2ccccc12)C(=O)O.O=C(O)c1ccccc1 [Formulation 391]
state at 25° C. [1, 5]: Solid

SMILES: NCCCC[C@H](N)C(=O)O.O=C(O)CCCCC(=O)O [Formulation 11]
state at 25° C. [1, 4]: Solid

SMILES: CC(C)[C@H](N)C(=O)O.CC(O)C(=O)O [Formulation 193]
state at 25° C. [1, 4]: Solid

SMILES: NCCCC[C@H](N)C(=O)O.O=C(O)C[C@H](O)C(=O)O.O=C(O)C[C@H](O)C(=O)O [Formulation 36]
state at 25° C. [1, 4]: Solid

SMILES: C[C@H](N)C(=O)O.O=C(O)CCCCC(=O)O [Formulation 157]
state at 25° C. [1, 4]: Solid

SMILES: N[C@@H](CCC(=O)O)C(=O)O.N[C@@H](CO)C(=O)O [Formulation 247]
state at 25° C. [1, 4]: Solid

SMILES: CCC(=O)O.NCC(=O)O [Formulation 129]
state at 25° C. [1, 4]: Solid

state at 25° C. [1, 5]: Solid
SMILES: CC(=O)O.N[C@@H](CS)C(=O)O [Formulation 307]

SMILES: CCCCCC(=O)O.CC[C@H](C)[C@H](N)C(=O)O [Formulation 224]
state at 25° C. [1, 4]: Solid

SMILES: N[C@@H](Cc1c[nH]cn1)C(=O)O.O=CO.O=CO [Formulation 106]
state at 25° C. [1, 4]: Solid

SMILES: CCCCC/C=C\C/C=C\CCCCCCCC(=O)O.NCC(=O)O [Formulation 134]
state at 25° C. [1, 4]: Solid

SMILES: NCCCC(=O)O.N[C@@H](CCC(=O)O)C(=O)O [Formulation 179]
state at 25° C. [1, 4]: Solid

SMILES: CCCCCC(=O)O.C[C@H](N)C(=O)O [Formulation 150]
state at 25° C. [1, 4]: Solid

SMILES: CC(=O)O.NCCCC[C@H](N)C(=O)O [Formulation 2]
state at 25° C. [1, 4]: Solid

SMILES: C[C@@H](O)[C@H](N)C(=O)O.O=C1O[C@H]([C@@H](O)CO)C(O)=C1O [Formulation 270]
state at 25° C. [1, 4]: Solid

SMILES: CCCCCC(=O)O.NCCCC(=O)O [Formulation 170]
state at 25° C. [1, 4]: Solid

SMILES: NCCCC[C@H](N)C(=O)O.O=C(O)C(O)C(O)C(=O)O.O=C(O)C(O)C(O)C(=O)O [Formulation 38]
state at 25° C. [1, 4]: Solid

SMILES: CC(C)[C@H](N)C(=O)O.O=C(O)c1ccccc1 [Formulation 201]
state at 25° C. [1, 4]: Solid

SMILES: NCCCC(=O)O.O=C(O)CCC(=O)O [Formulation 178]
state at 25° C. [1, 4]: Solid

SMILES: CCCC(=O)O.N[C@@H](CO)C(=O)O [Formulation 242]
state at 25° C. [1, 4]: Solid

state at 25° C. [1, 5]: Solid
SMILES: N[C@@H](CS)C(=O)O.O=C(O)CC(O)(CC(=O)O)C(=O)O [Formulation 318]

state at 25° C. [1, 5]: Solid
SMILES: O=C(O)C(O)C(O)C(=O)O.O=C(O)[C@@H]1CCCN1 (centres unmarked) [Formulation 356]

SMILES: N[C@@H](Cc1c[nH]c2ccccc12)C(=O)O.O=C(O)[C@H](O)[C@@H](O)[C@H](O)[C@H](O)CO [Formulation 382]
state at 25° C. [1, 5]: Solid

SMILES: C[C@@H](O)[C@H](N)C(=O)O.O=C(O)[C@H](O)[C@@H](O)[C@H](O)[C@H](O)CO [Formulation 260]
state at 25° C. [1, 4]: Solid

SMILES: NCCCC[C@H](N)C(=O)O.O=C(O)CCCCC(=O)O.O=C(O)CCCCC(=O)O [Formulation 32]
state at 25° C. [1, 4]: Solid

SMILES: NCCCC(=O)O.O=C(O)C[C@H](O)C(=O)O [Formulation 181]
state at 25° C. [1, 4]: Solid

state at 25° C. [1, 5]: Solid
SMILES: O=C(O)CCCCC(=O)O.O=C(O)[C@@H]1CCCN1 [Formulation 350]

SMILES: N[C@@H](CC(=O)O)C(=O)O.O=C(O)c1ccccc1 [Formulation 408]
state at 25° C. [1, 5]: Solid

SMILES: CC(C)C[C@H](N)C(=O)O.O=C(O)CCC(=O)O [Formulation 212]
state at 25° C. [1, 4]: Solid

SMILES: CC(C)[C@H](N)C(=O)O.O=C(O)CC(O)(CC(=O)O)C(=O)O [Formulation 199]
state at 25° C. [1, 4]: Solid

SMILES: CC(O)C(=O)O.N[C@@H](Cc1c[nH]c2ccccc12)C(=O)O [Formulation 383]
state at 25° C. [1, 5]: Solid
